Patent US20080096848A1, “Substituted N-Aryl-9-Oxo-9H-Fluorene-1-Carboxamides and Analogs as Activators of Caspases and Inducers of Apoptosis” (CYTOVIA INC., priority 2004, published 2008)
pEC50: −log10 of the molar value. Like-named read-outs stand apart in the source and are kept apart here.

How the values were obtained:
[1] = system: T-47D; experiment: Caspase cascade activation assay (Ac-DEVD-R110 fluorogenic substrate) in T-47D cells; type: cell-based, Human; details: 24 h incubation; for Caspase activity (Ratio): ratio of net RFU (T=3 h) of test compound to control, 0.16 to 10 μM final; for pEC50: sigmoidal dose-response, read-out: Caspase potency EC50
Experimental: Human breast cancer cell lines T-47D was grown according to media component mixtures designated by American Type Culture Collection+10% FCS (Invitrogen Corporation), in a 5% CO2-95% humidity incubator at 37° C. T-47D and ZR-75-1 cells were maintained at a cell density between 30 and 80% confluency and for HL-60 at a cell density of 0.1 to 0.6×10^6 cells/mL. Cells were harvested at 600×g and resuspended at 0.65×10^6 cells/mL into appropriate media+10% FCS. An aliquot of 45 μL of cells was added to a well of a 96-well microtiter plate containing 5 μL of a 10% DMSO in RPMI-1640 media solution containing 1.6 to 100 μM of N-(2-methylphenyl)-9-oxo-9H-fluorene-1-carboxamide or other test compound (0.16 to 10 μM final). An aliquot of 45 μL of cells was added to a well of a 96-well microtiter plate containing 5 μL of a 10% DMSO in RPMI-1640 media solution without test compound as the control sample. The samples were mixed by agitation and then incubated at 37° C. for 24 h in a 5% CO2-95% humidity incubator. After incubation, the samples were removed from the incubator and 50 μL of a solution containing 20 μM of N—(Ac-DEVD)-N′-ethoxycarbonyl-R110 fluorogenic substrate (SEQ ID NO:1) (Cytovia, Inc.; U.S. Pat. No. 6,335,429), 20% sucrose (Sigma), 20 mM DTT (Sigma), 200 mM NaCl (Sigma), 40 mM Na PIPES buffer pH 7.2 (Sigma), and 500 μg/mL lysolecithin (Calbiochem) was added. The samples were mixed by agitation and incubated at room temperature. Using a fluorescent plate reader (Model 1420 Wallac Instruments), an initial reading (T=0) was made about 1-2 min after addition of the substrate solution, employing excitation at 485 nm and emission at 530 nm, to determine the background fluorescence of the control sample. After about 3 h of incubation, the samples were read for fluorescence as above (T=3 h).
The Relative Fluorescence Unit values (RFU) were used to calculate the sample readings as follows: RFU(T=3h)−Control RFU(T=0)=Net RFU(T=3h)
The activity of caspase cascade activation was determined by the ratio of the net RFU value for N-(2-methylphenyl)-9-oxo-9H-fluorene-1-carboxamide and other test compounds to that of control samples. The EC50 (nM) was determined by a sigmoidal dose-response calculation (Prism 2.0, GraphPad Software Inc.).

[2] = system: T-47D; experiment: Inhibition of cell proliferation (GI50), CellTiter 96 AQueous One, T-47D cells; type: cell-based; details: Homo sapiens, T47D, 48 h incubation, read-out: GI50 (dose for 50% inhibition of cell proliferation)
Experimental: (§1) T-47D and MX1 cells were grown and harvested as in Example 39. An aliquot of 90 μL of cells (2.2×10^4 cells/mL) was added to a well of a 96-well microtiter plate containing 10 μl of a 10% DMSO in RPMI-1640 media solution containing 1 nM to 100 μM of N-(2-methylphenyl)-9-oxo-9H-fluorene-1-carboxamide (0.1 nM to 10 μM final) or other test compound. An aliquot of 90 μL of cells was added to a well of a 96-well microtiter plate containing 10 μL of a 10% DMSO in RPMI-1640 media solution without compound as the control sample for maximal cell proliferation (AMax). The samples were mixed by agitation and then incubated at 37° C. for 48 h in a 5% CO2-95% humidity incubator. After incubation, the samples were removed from the incubator and 20 μL of CellTiter 96 AQUEOUS One Solution Cell Proliferation™ reagent (Promega) was added. The samples were mixed by agitation and incubated at 37° C. for 2-4 h in a 5% CO2-95% humidity incubator. Using an absorbance plate reader (Model 1420 Wallac Instruments), an initial reading (T=0) was made about 1-2 min after addition of the solution, employing absorbance at 490 nm. This determines the possible background absorbance of the test compounds. No absorbance for N-(2-methylphenyl)-9-oxo-9H-fluorene-1-carboxamide was found at 490 nm. After the 2-4 h incubation, the samples were read for absorbance as above (ATest).
(§2) Baseline for GI50 (dose for 50% inhibition of cell proliferation) of initial cell numbers were determined by adding an aliquot of 90 μL of cells or 90 μL of media, respectively, to wells of a 96-well microtiter plate containing 10 μL of a 10% DMSO in RPMI-1640 media solution. The samples were mixed by agitation and then incubated at 37° C. for 0.5 h in a 5% CO2-95% humidity incubator. After incubation, the samples were removed from the incubator and 20 μL of CellTiter 96 AQUEOUS One Solution Cell Proliferation™ reagent (Promega) was added. The samples were mixed by agitation and incubated at 37° C. for 2-4 h in a 5% CO2-95% humidity incubator. Absorbance was read as above, (AStart) defining absorbance for initial cell number used as baseline in GI50 determinations.
(§3) GI50 (dose for 50% inhibition of cell proliferation) is the concentration where [(ATest−Astart)/(AMax−Astart)]=0.5.

[3] = system: MX1; experiment: Inhibition of cell proliferation (GI50), CellTiter 96 AQueous One, MX1 cells; type: cell-based; details: Homo sapiens, 48 h incubation, read-out: GI50 (dose for 50% inhibition of cell proliferation)
Experimental: as §1, §2, §3

SMILES | pEC50 ([1]; Homo sapiens, T47D, 24 h) | GI50 [2] [nM] | melting point [°C] | pEC50 [1] | Caspase activity (Ratio) [1] | GI50 [3] [nM]
Cc1ccccc1NC(=O)c1cccc2c1Cc1ccccc1-2 [Example 13, N-(2-Methylphenyl)-9H-fluorene-1-carboxamide] | 5.96 | 5040 |  |  | 6.0 | 6000
O=C(Nc1ccccc1-n1cccn1)c1cccc2c1C(=O)c1ccccc1-2 [Example 9, N-(2-(1H-Pyrazol-1-yl)-phenyl)-9-oxo-9H-fluorene-1-carboxamide] | 6.01 | 451 |  |  | 7.7 | 1000
O=C(Nc1ccccc1-n1cccn1)c1cccc2c1Cc1ccccc1-2 [Example 12, N-(2-(1H-Pyrazol-1-yl)-phenyl)-9H-fluorene-1-carboxamide] | 5.80 |  | 179 to 180 |  | 8.9 | 
COc1ccccc1NC(=O)c1cccc2c1C(=O)c1ccccc1-2 [Example 15, N-(2-Methoxyphenyl)-9-oxo-9H-fluorene-1-carboxamide] | 6.24 | 600 |  |  | 6.6 | 2000
[N-]=[N+]=Nc1ccccc1NC(=O)c1cccc2c1C(=O)c1ccccc1-2 [Example 27, N-(2-Azido-phenyl)-9-oxo-9H-fluorene-1-carboxamide] | 5.85 | 45 |  |  | 4.0 | 90
CN(C)c1ccccc1NC(=O)c1cccc2c1C(=O)c1ccccc1-2 [Example 10, N-(2-Dimethylaminophenyl)-9-oxo-9H-fluorene-1-carboxamide] | 5.81 | 665 | 152 to 153 |  | 8.0 | 736
CN(C)Cc1ccccc1NC(=O)c1cccc2c1C(=O)c1ccccc1-2 [Example 20, N-(2-Dimethylaminomethylphenyl)-9-oxo-9H-fluorene-1-carboxamide] |  | 233 |  | 6.16 | 6.7 | 8000
O=C(Nc1ccccc1-n1cccn1)c1cccc2c1OCC2 [Example 19, N-(2-(1H-pyrazol-1-yl)phenyl)-2,3-dihydrobenzofuran-7-carboxamide] | < 5.00 |  |  |  | 0.9 | 
Nc1ccccc1NC(=O)c1cccc2c1C(=O)c1ccccc1-2 [Example 26, N-(2-Amino-phenyl)-9-oxo-9H-fluorene-1-carboxamide] | < 5.00 |  |  |  | 1.2 | 

Second part, led by results:

pEC50 ([1]; Homo sapiens, T47D, 24 h) | GI50 [2] [nM] | melting point [°C] | pEC50 [1] | SMILES | Caspase activity (Ratio) [1] | GI50 [3] [nM]
5.89 | 2470 |  |  | O=C(Nc1ccccc1-n1cccn1)c1cccc2sc3ccccc3c12 [Example 32, N-(2-(1H-Pyrazol-1-yl)phenyl)-dibenzothiophene-1-carboxamide] | 2.7 | 4350
< 5.00 | > 10000 |  |  | CN(C(=O)c1cccc2c1C(=O)c1ccccc1-2)c1ccccc1-n1cccn1 [Example 28, N-Methyl-N-(2-(1H-pyrazol-1-yl)phenyl)-9-oxo-9H-fluorene-1-carboxamide] | 1.2 | > 10000
6.52 | 429 |  |  | O=C(Nc1ccccc1-n1cc(Br)cn1)c1cccc2c1C(=O)c1cc([N+](=O)[O-])ccc1-2 [Example 38, N-(2-(4-Bromo-1H-pyrazol-1-yl)phenyl)-7-nitro-9-oxo-9H-fluorene-1-carboxamide] | 8.0 | 315
6.24 | 146 |  |  | Cc1ccccc1NC(=O)c1cccc2c1C(=O)c1ccccc1-2 [Example A, N-(2-Methylphenyl)-9-oxo-9H-fluorene-1-carboxamide] | 11.2 | 549
6.17 | 415 |  |  | [N-]=[N+]=Nc1ccc2c(c1)C(=O)c1c(C(=O)Nc3ccccc3-n3cccn3)cccc1-2 [Example 37, 7-Azido-N-(2-(1H-pyrazol-1-yl)phenyl)-9-oxo-9H-fluorene-1-carboxamide] | 3.0 | 200
6.64 | 166 |  |  | O=C(Nc1ccccc1-n1cccn1)c1cccc2c1C(=O)c1cc([N+](=O)[O-])ccc1-2 [Example 29, 7-Nitro-N-(2-(1H-pyrazol-1-yl)phenyl)-9-oxo-9H-fluorene-1-carboxamide] | 5.3 | 150
